In patent publication US12708620B2, “Prodrugs and medical uses thereof” (priority 2018, dated 2026):

Legend:
[1] = preliminary toxicology study, intravenous administration; assay type: in vivo, rat
Procedure: Preliminary toxicology studies of the intravenous administration of Cpd.11 Ms in rats and dogs according to a dosing regimen consisting of 3 consecutive days of administration in a 3 weekly cycle (QDx3/cycle) have shown that potential haematological toxicity in tissues such as the bone marrow, the thymus and lymph nodes (known to have hypoxic niches) can be minimized at dosages at or below 400 mg/kg in the rat and at or below 100 mg/kg in the dog. As such, these levels correspond to 2360 mg/m^2 and 2000 mg/m^2, respectively, in human subjects. […] Alternative dosing regimens also include weekly administration for up to 3 or 4 consecutive times of each 3 or 4 weekly cycle. In addition, also an initial dose of QDx3 or QDx5 could be combined with less frequent administration schedules that may still allow a therapeutic effect over tumor growth and development, such as up to 3 or 4 weekly dosages in 3 to 4 weekly cycles, or once a month (or every three-four weeks) schedules that be applied with or without the parallel treatment with the appropriate standard-of-care protocols.

[2] = tested on: PANC-1 tumor xenograft; assay: pancreatic cancer (PDAC) xenograft model; assay type: in vivo, BALB/c Nude Mice; settings: PANC-1 xenograft; for Anti-tumor effect: 600 mg/kg IP, hypoxic status confirmed, methanesulfonate, 600 mg/kg
Procedure: All animal models were established as xenograft model in BALB/c Nude Mice (6-8 weeks old, 17-23 grams, maintained in standard conditions and diet), following approved IACUC (Institutional Animal Care and Use Committees) protocols. Cpd.11 Ms was formulated using 2% dimethyl sulfoxide (DMSO in water for injection, starting from a Cpd.11 Ms main preparation (100-60 mg/ml in 2% DMSO in water for injection).
After tumor cell inoculation, the animals were checked daily for morbidity and mortality. Before commencement of treatment all animals were weighed and the tumor volumes were measured using a caliper. The treatments were started when the mean tumor size reached approx. 250 mm^3. Each treated/control group contained 10 mice that were randomly assigned and injected daily for 5 days. The date of tumor cell inoculation was denoted as day 0 (thus injections were performed at day 1, 2, 3, 4, and 5). At the time of routine monitoring, the animals were checked for any effects of tumor growth and treatments on normal behavior such as mobility, visual estimation of food and water consumption, body weight gain/loss (body weights were measured daily during the 5-day treatment and thrice weekly after treatment), eye/hair matting and any other abnormal effect. Death and observed clinical signs were recorded on the basis of the numbers of animals within each subset. Tumor volumes were measured daily during the 5-day treatment and thrice weekly after treatment in two dimensions using a caliper, and the volume was expressed in mm3 using the formula: V=0.5 a×b2 where a and b are the long and short diameters of the tumor, respectively. The entire procedures of dosing as well as tumor and body weight measurement were conducted in a Laminar Flow Cabinet. Individual mice were euthanized by cervical dislocation when the tumor size reached 1400-1600 mm3. The surrogate endpoint for survival was calculated and indicated as TVx4 (initial tumor volume times 4). Statistical analysis of difference in tumor volume among the groups was conducted at the end of experiment using Independent-Samples T Test. All data were analyzed in SPSS (Statistical Product and Service Solutions) version 18.0 (IBM, Armonk, NY, U.S.). P-values were rounded to three decimal places, with the exception that raw P-values less than 0.001 were stated as P<0.001. All tests were two-sided. P<0.05 was considered to be statistically significant.
For the MDA-MB-436 tumor (ATCC: HTB-130; Passage: P4) cells were maintained in vitro as a monolayer culture in L-15 medium supplemented with 10% heat inactivated fetal bovine serum at 37° C. in an atmosphere of 100% air. […] The cells growing in an exponential growth phase were harvested and counted for tumor inoculation. […]

For `CCN1CCN(C(=O)c2cc(N(CCBr)CCOS(C)(=O)=O)c(S(C)(=O)=O)cc2[N+](=O)[O-])CC1.CS(=O)(=O)O` [Cpd.11 Ms, 4-(5-((2-bromoethyl) (2-((methylsulfonyl)oxy)ethyl)amino)-4-(methylsulfonyl)-2-nitrobenzoyl)-1-ethylpiperazin-1-ium methanesulfonate], the “corresponding level in human subjects of the rat dosage” value ([1]; from 400 mg/kg in the rat) was 2360 mg/m^2, the “dosage at which potential haematological toxicity (bone marrow, thymus, lymph nodes) can be minimized” value ([1]; rat, intravenous, QDx3 in a 3 weekly cycle) was no more than 400 mg/kg and the Anti-tumor effect ([2]; single treatment cycle, listed as Cpd.11Ms) was “Clear impact,”. For the same compound, the Anti-tumor effect ([2]; single treatment cycle) was “significant tumour growth retardation”, the body weight loss ([2]; IP) was “without major body weight loss” and the “increase in median surrogate survival index” value ([2]; single treatment cycle, P=0.0018) was “approx. 50%”.
